Assay results as given in patent US20040014676A1, “SRC kinase inhibitors useful for treating osteoporosis” (priority 2001, published 2004).

Each compound was assayed against T1, Src kinase (Homo sapiens, UniProt P12931) (assay: Phosphorylation assay of Src kinase inhibitors (radiometric, 96 well filter plate)). Settings: duplicates, tested in the range of 400-0.098 µM; 10 µM peptide substrate (FIYGAFKKKKNH2), 5 µM unlabeled ATP, room temperature 30 min; read-out: IC50.
T1 construct: purchased Upstate Bioteolnology (sic; Upstate Biotechnology); later HMR stock 27597-019E1 #14-117
Type: biochemical
Procedure: The present invention provides novel compounds of Formulae I through XVIII discussed above. The following compounds which fall within Formulae I through XVIII are characterized by structure, IUPAC name and activity using phosphorylation assay for protein tyrosine Src kinase.
Phosphorylation Assay of Src Kinase Inhibitors
The activity of Src kinase was measured in a 96 well plate phosphorylation assay where the transfer of gamma phosphate from ATP to peptide substrate was measured radiometrically. […] Ki values were determined experimentally for some of the inhibitors. The phosphocellulose filter plates (Millipore catalog #MAPH NOB) were prewet prior to the phosphorylation assay by addition of 100 1 per well of 30 mM MES buffer+0.4 mg/ml BSA. After a 20-minute incubation, the buffer was removed completely via a Millipore vacuum manifold. The phosphorylation assay was then set up in the filter plates in a total volume per well of 60 1. The 60 1 consisted of compound (see concentration ranges above), a 1:100 dilution of Src kinase (originally Upstate Bioteolnology, #14-117; later HMR stock 27597-019E1) or assay buffer alone (for no enzyme control wells), 10 M peptide substrate (FIYGAFKKKKNH2), 5 M unlabeled ATP and a 1:500 dilution of P-ATP (New England Nuclear, catalog #NEG-602H, 2000 Ci/mmol). The reaction was mixed and incubated at room temperature for 30 min. The kinase reactions were stopped by addition of 150 mM H3PO4 and incubated for 10 minutes. The filter plate wells were filtered and washed seven times with 200 1 per well of 150 mM H3PO4. Finally, the filter plate was placed into a Packard plate adapter (Packard catalog #600517B), 35 1 of Microscint-20 (Packard catalog #6013621) was added to each well, the plate was sealed (TopSeal A sealers; Packard catalog #6005185) and counted on a Packard TopCount.

Q: How did the IC50 turn out when “3-[4-[[2(S)-AMINO-3-(4-HYDROXY- PHENYL)-1-OXOPROPYL]AMINO]- ETHOXY]-2-[N-ACETAMIDO]- NAPHTHALENECARBOXAMIDE [Example 23]” was run?
A: 3.4 µM

Q: “3-[[4-[[1-OXO-2(S)-AMINO-3-(4- HYDROXYPHENYL)]PROPYL]AMINO]BUTOXY]-7-METHOXY- NAPHTHALENE-2-[N-[[(3-HYDROXY- PROPYLAMINO)-CARBONYL]- METHYL]]CARBOXAMIDE [Example 118]” was tested. Which IC50 did it give?
A: 47 µM

Q: For “3-[[[2(S)-AMINO-3-(4-HYDROXY- PHENYL)-1-OXO]PROPYL]AMINO]- BUTOXY]NAPHTHALENE-2-[N- [(AMIDO)[2-(INDOL-3-YL)METHYL]- METHYL]CARBOXAMIDE [Example 29]”, which IC50 is on record?
A: 60 µM

Q: With “3-[[[4-[[[1-OXO-2(S)-AMINO-3- HYDROXYPHENYL)]PROPYL]AMINO]- BUTYL]CARBONYL]AMINO]- NAPHTHALENE-2-ACETAMIDO)- CARBOXAMIDE [Example 91]” as the compound, how does the IC50 read?
A: 209 µM

Q: Cc1nc(-c2ccc(CC(N)C(=O)NCCCCOc3cc4ccccc4cc3C(=O)NCC(N)=O)cc2)no1 (stereo in doubt) [Compound 135, (2S)-2-amino-N-(4-{3-[N-(carbamoylmethyl)carbamoyl](2-naphtyloxy)}butyl)-3-[4-(5-methyl(1,2,4-oxadizol-3-yl))phenyl]propanamide] was tested. Which IC50 did it give?
A: 29 µM

Q: How did the IC50 turn out when NC(=O)CNC(=O)c1cc(-c2ccccc2)ccc1OCCCCNC(=O)C(N)Cc1ccc(O)cc1 (stereo in doubt) [Compound 144, (2S)-2-amino-N-(4-{2-[N-(carbamoylmethyl)carbamoyl]-4-phenylphenoxy}butyl)-3-(4-hydroxyphenyl)propanamide] was run?
A: 30 µM

Q: NC(=O)CNC(=O)c1cc2ccccc2cc1OCCCCN1CCNC(Cc2ccccc2)C1=O (stereo in doubt) [Example 28, 3-[4-[(2-OXO-3(S)-BENZYL)-PIPERAZIN- 1-YL]BUTOXY]-NAPHTHALENE-2-(N- ACETAMIDO)CARBOXAMIDE] was tested. Which IC50 did it give?
A: 27 µM

Q: How did the IC50 turn out when NC(=O)CNC(=O)c1cc2ccccc2cc1OCCCCN1CCNC(Cc2ccccc2)C1=O (stereo in doubt) [Example 30, 3-[4-[(2-OXO-3-(R)-BENZYL)- PIPERAZIN-1-YL]BUTOXY]- NAPHTHALENE-2-(N- ACETAMIDO)CARBOXAMIDE] was run?
A: 8.8 µM

Q: How did the IC50 turn out when C[C@@H](NC(=O)c1cc2ccccc2cc1OCCCCNC(=O)[C@H](N)Cc1ccc(O)cc1)C(N)=O (stereo in doubt) [Example 122, 2-[[4-[[1-OXO-2-AMINO-3-(4-HYDROXY- PHENYL)]PROPYL]AMINO] BUTOXY]- NAPHTHALENE-3-[N-[1(S)-METHYL-2- OXO-2-AMINO)ETHYL]ACETAMIDO]- CARBOXAMIDE] was run?
A: 12 µM

Q: With NC(=O)CNC(=O)c1cc2ccccc2cc1NCCCCNC(=O)[C@H](N)Cc1ccc(O)cc1 (stereo in doubt) [Example 123] as the compound, how does the IC50 read?
A: 25 µM

Q: How did the IC50 turn out when CNC(=O)C(Cc1ccc(-c2noc(C)n2)cc1)C(=O)NCCCCOc1cc2ccccc2cc1C(=O)NCC(N)=O (centres unmarked) [Compound 134, N-(4-{3-[N-(carbamoylmethyl)carbamoyl](2-naphthyloxy)}butyl)-N′-methyl-2-{[4-(5-methyl(1,2,4-oxadiazol-3-yl))phenyl]methyl}propane-1,3-diamide] was run?
A: 76 µM

Q: NC(=O)CNC(=O)c1c(Cl)c(Cl)cc(Cl)c1OCCCCNC(=O)[C@@H](N)Cc1ccc(O)cc1 [Compound 136, (2S)-2-amino-N-(4-{2-[N-(carbamoylmethyl)carbamoyl]-3,4,6-trichlorophenoxy)butyl)-3-(4-hydroxyphenyl)propanamide] was tested. Which IC50 did it give?
A: 200 µM

Q: For NC(=O)CC(=O)Nc1cc2ccccc2cc1OCCCCNC(=O)[C@@H](N)Cc1ccc(O)cc1 [Compound 151, (2S)-2-amino-N-{4-[3-(2-carbamoylacetylamino)(2-naphthyloxy)]butyl}-3-(4-hydroxyphenyl)propanamide], which IC50 is on record?
A: 5 µM

Q: How did the IC50 turn out when NC(=O)CC(=O)Nc1cc2ccccc2cc1OCCCCNC(=O)[C@@H](N)Cc1csc2ccccc12 [Compound 152, (2S)-2-amino-3-benzo[b]thiophen-3-yl-N-{4-[3-(2-carbamoylacetylamino)(2-naphthyloxy)]butyl}propanamide] was run?
A: 1 µM

Q: NC(=O)CNC(=O)c1cc2ccccc2cc1OCCCCNC(=O)[C@@H](N)CC1=CS(=O)(=O)c2ccccc21 [Compound 155, (2S)-2-amino-3-(1,1-dioxobenzo[b]thiophen-3-yl)-N-(4-{3-[N-(carbamoylmethyl)carbamoyl](2-naphthyloxy)}butyl)propanamide] was tested. Which IC50 did it give?
A: 5 µM

Q: With NC(=O)Cc1nc(-c2cc3ccccc3cc2OCCCCNC(=O)[C@@H](N)Cc2csc3ccccc23)no1 [Compound 156, (2S)-2-amino-3-benzo[b]thiophen-3-yl-N-(4-{3-[5-(carbamoylmethyl)(1,2,4-oxadiazol-3-yl)](2-naphthyloxy)}butyl)propanamide] as the compound, how does the IC50 read?
A: 20 µM

Q: With N[C@@H](Cc1ccc(O)cc1)C(=O)NCCCCOc1c(O)cc(C(=O)NCC(=O)CCCO)cc1O [Example 3, ALPHA(S)-AMINO-N-[4-[2,6-DI- HYDROXY-4-[[(5-HYDROXY-2-OXO- PENTYL)AMINO]CARBONYL]- PHENOXY] BUTYL]-4- HYDROXYBENZENEPROPANAMIDE] as the compound, how does the IC50 read?
A: ≥ 500 µM

Q: Which IC50 does the source give for NC(=O)CNC(=O)c1cc2ccccc2cc1OCCCCNC(=O)[C@@H](N)Cc1ccc(O)cc1 [Example 5, 3-[4-[[2(S)-AMINO-3-(4-HYDROXY- PHENYL)-1-OXOPROPYL]AMINO]- BUTOXY]-2-[N-ACETAMIDO]- NAPHTHALENECARBOXAMIDE] here?
A: 0.47 µM

Q: Which IC50 does the source give for NC(=O)c1cc2ccccc2cc1OCCCCNC(=O)[C@@H](N)Cc1ccc(O)cc1 [Example 6, 3-[4-[[2(S)-AMINO-3-(4-HYDROXY- PHENYL)-1-OXOPROPYL]AMINO]- BUTOXY]-NAPHTHALENE-2- CARBOXAMIDE] here?
A: 47 µM

Q: With N[C@@H](Cc1ccc(O)cc1)C(=O)NCCCOc1cc2ccccc2cc1C(=O)NCC(=O)NCCCO [Example 7, 3-[3-[[2(S)-AMINO-3-(4-HYDROXY- PHENYL)-1-OXOPROPYL]AMINO]- PROPOXY]-N-[2-[(3-HYDROXY- PROPYL)AMINO]-2-OXOETHYL]-2- NAPHTHALENECARBOXAMIDE] as the compound, how does the IC50 read?
A: 45 µM

Q: For NCCCCC(NC(=O)c1cc2ccccc2cc1OCCCCNC(=O)[C@@H](N)Cc1ccc(O)cc1)C(N)=O (stereo partly drawn) [Example 8, 3-[4-[[2(S)-AMINO-3-(4-HYDROXY- PHENYL)-1-OXOPROPYL]AMINO]- BUTOXY]-NAPHTHALENE-2-[N-[[(4- AMINOBUTYL)(AMIDO)]METHYL]- ACETAMIDO]CARBOXAMIDE], which IC50 is on record?
A: 348 µM

Q: Which IC50 does the source give for CC(NC(=O)c1cc2ccccc2cc1OCCCCNC(=O)[C@@H](N)Cc1ccc(O)cc1)C(N)=O (stereo partly drawn) [Example 9, 3-[4-[[2(S)-AMINO-3-(4-HYDROXY- PHENYL)-1-OXOPROPYL]AMINO]- BUTOXY]-NAPHTHALENE-2-N-[(1- AMIDO)ETHYL]CARBOXAMIDE] here?
A: 25 µM

Q: Which IC50 does the source give for NC(=O)C(Cc1ccccc1)NC(=O)c1cc2ccccc2cc1OCCCCNC(=O)[C@@H](N)Cc1ccc(O)cc1 (stereo partly drawn) [Example 10, 3-[4-[[2(S)-AMINO-3-(4-HYDROXY- PHENYL)-1-OXOPROPYL]AMINO]- BUTOXY]-NAPHTHALENE-2-[N- [(AMIDO)(BENZYL)METHYL]]- CARBOXAMIDE] here?
A: ≥ 500 µM

Q: How did the IC50 turn out when N=C(N)NCCCC(NC(=O)c1cc2ccccc2cc1OCCCCNC(=O)[C@@H](N)Cc1ccc(O)cc1)C(N)=O (stereo partly drawn) [Example 11, 3-[4-[[2(S)-AMINO-3-(4-HYDROXY- PHENYL)-1-OXOPROPYL]AMINO]- BUTOXY]-NAPHTHALENE-2-[N- [[AMIDO][(3-AMINOIMINOMETHYL)- PROPYLAMINO]METHYL]]- CARBOXAMIDE] was run?
A: 113 µM

Q: How did the IC50 turn out when NC(=O)C(CCC(=O)O)NC(=O)c1cc2ccccc2cc1OCCCCNC(=O)[C@@H](N)Cc1ccc(O)cc1 (stereo partly drawn) [Example 12, 3-[4-[[2(S)-AMINO-3-(4-HYDROXY- PHENYL)-1-OXOPROPYL]AMINO]- BUTOXY]-NAPHTHALENE-2-[N- [(AMIDO)(2-CARBOXYEHTYL)- METHYL]]CARBOXAMIDE] was run?
A: 308 µM

Q: NC(=O)CNC(=O)c1cc2ccccc2cc1OCCCCNC(=O)[C@@H](N)Cc1ccc2ccccc2c1 [Example 13, 3-[4-[[2(S)-AMINO-3-(NAPTHYL-2-YL)-1- OXOPROPYL]AMINO]BUTOXY]- NAPHTHALENE-2-[N-(2- AMIDOMETHYL)]CARBOXAMIDE] was tested. Which IC50 did it give?
A: 0.45 µM

Q: For NC(=O)CNC(=O)c1cc2ccccc2cc1OCCCCNC(=O)[C@@H](N)Cc1ccccc1 [Example 14, 3-[4-[[2(S)-AMINO-3-(PHENYL)-1- OXOPROPYL]AMINO]BUTOXY]- NAPHTHALENE-2-[N-(2- AMIDOMETHYL)]CARBOXAMIDE], which IC50 is on record?
A: 0.98 µM

Q: How did the IC50 turn out when CC(C)C[C@H](N)C(=O)NCCCCOc1cc2ccccc2cc1C(=O)NCC(N)=O [Example 15, 3-[4-[[2(S)-AMINO-3-(ISOPROPYL)-1- OXOPROPYL]AMINO]BUTOXY]- NAPHTHALENE-2-[N-(2- AMIDOMETHYL)]CARBOXAMIDE] was run?
A: 4.8 µM

Q: How did the IC50 turn out when NC(=O)CNC(=O)c1cc2ccccc2cc1OCCCCNC(=O)[C@H](Cc1ccc(O)cc1)NC(=O)c1ccccc1 [Example 17, 3-[4-[[2(S)-(N-BENZOYLAMINO)-3-(4- HYDROXYPHENYL)-1-OXOPROPYL]- AMINO]BUTOXY]-NAPHTHALENE-2- [N-(2-AMIDOMETHYL)]CARBOXAMIDE] was run?
A: 23 µM
